# pKi: −log10 of the molar value. Counter-ions that a name gives are not always drawn.
# Target: human adenosine A2A receptors (Homo sapiens, UniProt P29274)
# Assay: Binding affinities at hA2A receptors, displacement of [3H]-CGS 21680
# Settings: in vitro binding, radioligand [3H]-CGS 21680
# Excerpt: The compounds were examined in an assay measuring in vitro binding to human adenosine A2A receptors by determining the displacement of the adenosine A2A receptor selective radioligand [^3H]-CGS 21680 using standard techniques.
# Sequence of human adenosine A2A receptors (P29274 whole entry): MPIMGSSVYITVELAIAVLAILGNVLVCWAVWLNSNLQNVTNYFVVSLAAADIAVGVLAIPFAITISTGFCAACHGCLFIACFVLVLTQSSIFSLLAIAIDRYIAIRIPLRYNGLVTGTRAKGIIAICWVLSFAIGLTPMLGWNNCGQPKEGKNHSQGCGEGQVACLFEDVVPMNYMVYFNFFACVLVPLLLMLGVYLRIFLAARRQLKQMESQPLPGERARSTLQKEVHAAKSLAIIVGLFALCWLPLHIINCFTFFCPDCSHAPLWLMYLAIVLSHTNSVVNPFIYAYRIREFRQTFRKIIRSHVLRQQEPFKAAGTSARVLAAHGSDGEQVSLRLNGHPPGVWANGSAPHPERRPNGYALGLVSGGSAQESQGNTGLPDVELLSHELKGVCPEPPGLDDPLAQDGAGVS
row,pKi,SMILES
1,5.77,"OC(c1ccccc1)c1cc(C(F)(F)F)nc2c(C(F)(F)F)cccc12 (stereo not drawn) [Example 1, 2,8-Bis(trinfluoromethyl)-α-phenyl-4-quinolinemethanol]"
2,5.81,"OC(c1cccs1)c1cc(C(F)(F)F)nc2c(C(F)(F)F)cccc12 (stereo not drawn) [Example 2, 2,8-Bis(trifluoromethyl)-α-(2-thienyl)-4-quinolinemethanol]"
3,6.02,"OC(c1ccsc1)c1cc(C(F)(F)F)nc2c(C(F)(F)F)cccc12 (stereo not drawn) [Example 3, 2,8-Bis(trifluoromethyl)-α-(3-thienyl)-4-quinolinemethanol]"
4,5.95,"OC(c1ccco1)c1cc(C(F)(F)F)nc2c(C(F)(F)F)cccc12 (stereo not drawn) [Example 4, 2,8-Bis(trifluoromethyl)-α-(2-furyl)-4-quinolinemethanol]"
5,5.99,"OC(c1ccoc1)c1cc(C(F)(F)F)nc2c(C(F)(F)F)cccc12 (stereo not drawn) [Example 5, 2,8-Bis(trifluoromethyl)-α-(3-furyl)-4-quinolinemethanol]"
6,6.07,"OC(c1cc(C(F)(F)F)nc2c(C(F)(F)F)cccc12)C1CCCCC1 (stereo not drawn) [Example 7, 2,8-Bis(trifluoromethyl)-α-clohexyl-4-quinolinemethanol]"
7,5.76,"OC1(c2cc(C(F)(F)F)nc3c(C(F)(F)F)cccc23)CCc2ccccc21 (stereo not shown) [Example 10, 1-(2,8-Bis(tnfluoromethyl)-4-quinolinyl)-1-indanol]"
8,5.87,"OC1(c2cc(C(F)(F)F)nc3c(C(F)(F)F)cccc23)CCCc2ccccc21 (stereo not shown) [Example 11, 1-(2,8-Bis(trifluoromethyl)-4-quinolinyl)-1,2,3,4-tetrabydro-1-naphthol]"
9,5.72,"OC1Cc2ccccc2C1c1cc(C(F)(F)F)nc2c(C(F)(F)F)cccc12 (stereo not shown) [Example 12, 1-(2,8-Bis(trifluorometbyl)-4-quinolinyl)-2-indanol]"
10,5.75,"Cc1c(C(F)(F)F)nc2c(C(F)(F)F)cccc2c1C(O)c1cccs1 (stereo not drawn) [Example 16, 2,8-Bis(trifluoromethyl)-3-methyl-α-(2-thienyl)-4-quinolinemethanol]"
11,5.92,"OC(c1ccccc1Cl)c1cc(C(F)(F)F)nc2c(C(F)(F)F)cccc12 (stereo not drawn) [Example 18, 2,8-Bis(trifluoromethyl)-α-(2-chlorophenyl)-4-quinolinemethanol]"
12,5.76,"O=[N+]([O-])c1ccccc1C(O)c1cc(C(F)(F)F)nc2c(C(F)(F)F)cccc12 (stereo not drawn) [Example 19, 2,8-Bis(trifluoromethyl)-α-(2-nitrophenyl)-4-quinolinemethanol]"
13,6.19,"OC(c1c(Cl)cccc1Cl)c1cc(C(F)(F)F)nc2c(C(F)(F)F)cccc12 (stereo not drawn) [Example 20, 2,8-Bis(trifluoromethyl)-α-(2,6-dichlorophenyl)-4-quinolinemethanol]"
14,6.13,"OC(c1ccccc1Br)c1cc(C(F)(F)F)nc2c(C(F)(F)F)cccc12 (stereo not drawn) [Example 21, 2,8-Bis(trifluoromethyl)-α-(2-bromophenyl)-4-quinolinemethanol]"
15,5.72,"OC(c1ccccc1F)c1cc(C(F)(F)F)nc2c(C(F)(F)F)cccc12 (stereo not drawn) [Example 22, 2,8-Bis(trifluoromethyl)-α-(2-fluorophenyl)-4-quinolinemethanol]"
16,6.15,COc1ccccc1C(O)c1cc(C(F)(F)F)nc2c(C(F)(F)F)cccc12 (stereo not shown) [Example 23]
17,5.95,"Cc1cccc2c(C(O)c3ccccc3)cc(C(F)(F)F)nc12 (stereo not drawn) [Example 26, 8-Methyl-α-phenyl-2-trifluoromethyl-4-quinolinemethanol]"
18,5.95,"Cc1cccc2c(C(O)c3ccccc3Cl)cc(C(F)(F)F)nc12 (stereo not drawn) [Example 27, α-(2-Chlorophenyl)-8-methyl-2-trinfluoromethyl-4-quinolinemethanol]"
19,6.24,"Cc1cccc2c(C(O)c3ccsc3)cc(C(F)(F)F)nc12 (stereo not drawn) [Example 28, 8-Methyl-α-(3-thienyl)-2-trifluoromethyl-4-quinolinemethanol]"
20,6.02,"Cc1cccc2c(C(O)C3CCCCC3)cc(C(F)(F)F)nc12 (stereo not drawn) [Example 29, α-Cyclohexyl-8-methyl-2-trifluoromethy-4-quinolinemethanol]"
21,5.97,"CCc1cccc2c(C(O)c3ccsc3)cc(C(F)(F)F)nc12 (stereo not drawn) [Example 32, 8-Ethyl-α-(3-thienyl)-2-trifluoromethyl-4-quinolinemethanol]"
22,5.97,"OC(c1ccsc1)c1cc(C(F)(F)F)nc2c(Cl)cccc12 (stereo not drawn) [Example 47, 8-Chloro-α-(3-thienyl)-2-trifluoromethyl-4-quinolinemethanol]"
23,5.82,CC(O)(c1cc2ccccc2o1)c1cc(C(F)(F)F)nc2c(C(F)(F)F)cccc12 (stereo not shown) [Example 51]
24,5.79,"Oc1ccc(C(O)c2cc(C(F)(F)F)nc3c(C(F)(F)F)cccc23)cc1 (stereo not drawn) [Example 74, 2,8-Bis(trifluoromethyl)-α-(4-hydroxyphenyl)-4-quinolinemethanol]"

# System: not given
# Assay: not given
# Settings: not given
row,melting point,SMILES
1,155.9 to 156.3 °C,COc1cc(C(O)C2CCCCC2)c2ccccc2n1.Cl (stereo not shown)
2,192 °C (dec.),"Cc1cc(C(O)c2ccccc2)c2ccccc2n1 (stereo not drawn) (as salt: salt) [Example 39, 2-Methyl-α-phenyl-4-quinolinemethanol]"
3,200 °C (dec.),"Cc1cc(C(O)c2ccsc2)c2ccccc2n1 (stereo not drawn) (as salt: salt) [Example 42, 2-Methyl-α-(3-thienyl)-4-quinolinemethanol]"
4,173 °C (dec.),"OC(c1cccs1)c1ccnc2ccccc12 (stereo not drawn) (as salt: salt) [Example 49, α-(2-Thienyl)-4-quinolinemethanol]"
5,151 to 152 °C,"OC(c1ccccc1)c1cc(C(F)(F)F)nc2c(C(F)(F)F)cccc12 (stereo not drawn) [Example 1, 2,8-Bis(trinfluoromethyl)-α-phenyl-4-quinolinemethanol]"
6,198 to 199 °C,"OC(c1cc(C(F)(F)F)nc2c(C(F)(F)F)cccc12)c1cc(C(F)(F)F)nc2c(C(F)(F)F)cccc12 [Example 8, Bis(2,8-bis(trifluoromethyl)-4-quinolinyl)methanol]"
7,111 to 112 °C,"OC(Cc1cc(C(F)(F)F)nc2c(C(F)(F)F)cccc12)c1ccccc1 (stereo not drawn) [Example 9, 2,8-Bis(trifluoromethyl)-α-phenyl-4-quinolineethanol]"
8,128.8 to 129.4 °C,"OC1(c2cc(C(F)(F)F)nc3c(C(F)(F)F)cccc23)CCCc2ccccc21 (stereo not shown) [Example 11, 1-(2,8-Bis(trifluoromethyl)-4-quinolinyl)-1,2,3,4-tetrabydro-1-naphthol]"
9,125.1 to 125.8 °C,"Cc1c(C(F)(F)F)nc2c(C(F)(F)F)cccc2c1C(O)c1cccs1 (stereo not drawn) [Example 16, 2,8-Bis(trifluoromethyl)-3-methyl-α-(2-thienyl)-4-quinolinemethanol]"
10,151.2 to 151.7 °C,"OC(c1c(Cl)cccc1Cl)c1cc(C(F)(F)F)nc2c(C(F)(F)F)cccc12 (stereo not drawn) [Example 20, 2,8-Bis(trifluoromethyl)-α-(2,6-dichlorophenyl)-4-quinolinemethanol]"
11,147 to 149 °C,"OC(c1ccccc1Br)c1cc(C(F)(F)F)nc2c(C(F)(F)F)cccc12 (stereo not drawn) [Example 21, 2,8-Bis(trifluoromethyl)-α-(2-bromophenyl)-4-quinolinemethanol]"
12,119.5 to 120.8 °C,"OC(c1ccccc1F)c1cc(C(F)(F)F)nc2c(C(F)(F)F)cccc12 (stereo not drawn) [Example 22, 2,8-Bis(trifluoromethyl)-α-(2-fluorophenyl)-4-quinolinemethanol]"
13,132 to 134 °C,COc1ccccc1C(O)c1cc(C(F)(F)F)nc2c(C(F)(F)F)cccc12 (stereo not shown) [Example 23]
14,113 to 114 °C,"Cc1cccc2c(C(O)c3ccsc3)cc(C(F)(F)F)nc12 (stereo not drawn) [Example 28, 8-Methyl-α-(3-thienyl)-2-trifluoromethyl-4-quinolinemethanol]"
15,153.6 to 154.3 °C,"CN(C)c1cc(C(O)c2ccccc2)c2ccccc2n1 (stereo not drawn) [Example 35, 2-Dimethylamino-α-phenyl-4-quinolinemethanol]"
16,158 to 159 °C,"OC(c1ccsc1)c1cc(-c2ccccc2)nc2ccccc12 (stereo not drawn) [Example 41, 2-Phenyl-α-(3-thienyl)-4-quinolinemethanol]"
17,144 to 146 °C,"OC(c1ccsc1)c1cc(C(F)(F)F)nc2ccccc12 (stereo not drawn) [Example 43, α-(3-Thienyl)-2-trifluoromethyl-4-quinolinemethanol]"

row,melting point,SMILES
1,130 to 131 °C,"OC1(c2cc(C(F)(F)F)nc3ccccc23)CCSC1 (stereo not shown) [Example 44, 3-(2-trifluoromethyl-4-quinolinyl)tetrahydrothiophene-3-ol]"
2,157 to 158 °C,"COc1cccc2c(C(O)c3ccsc3)cc(C(F)(F)F)nc12 (stereo not drawn) [Example 46, 8-Methoxy-α-(3-thienyl)-2-trifluoromethyl-4-quinolinemethanol]"
3,123 to 124 °C,"OC(Cc1cc(C(F)(F)F)nc2c(C(F)(F)F)cccc12)c1cc2ccccc2o1 (stereo not drawn) [Example 51, α-(2-Benzofuranyl)-2,8-bis(trifluoromethyl)-4-quinolineethanol]"
4,73 to 74 °C,"OC1(c2cc(C(F)(F)F)nc3c(C(F)(F)F)cccc23)C=CCC1 (stereo not shown) [Example 53, 1-(2,8-Bis(trifluoromethyl)-4-quinolinyl)cyclopent-2-ene-1-ol]"
5,155 to 157 °C,"Cc1cc(C(O)C2CCCCC2)c2cccc(C)c2n1 (stereo not drawn) [Example 54, α-Cyclohexyl-2,8-dimethyl-4-quinolinemethanol]"
6,152.8 to 153.3 °C,"O=C(NCc1ccccc1)c1cc(C(O)C2CCCCC2)c2ccccc2n1 (stereo not shown) [Example 61, N-Benzyl-4-(1-cyclohexyl-1-hydroxymethyl)-2-quinolinecarboxamide]"
7,149 °C (dec.),"Cc1cccc2c(C(O)c3ccccn3)cc(Br)nc12 (stereo not drawn) [Example 64, 2-Bromo-8-methyl-α-(2-pyridyl)-4-quinolinemethanol]"
8,130.7 to 131.8 °C,"Cc1cccc2c(C(O)c3ccccc3)cc(Br)nc12 (stereo not drawn) [Example 65, 2-Bromo-8-methyl-α-phenyl-4-quinolinemethanol]"
9,126.8 to 127.6 °C,"COc1cc(C(O)c2ccccn2)c2cccc(C)c2n1 (stereo not drawn) [Example 67, 2-Methoxy-8-methyl-α-(2-pyridyl)-4-quinolinemethanol]"
10,145.9 to 146.2 °C,"Nc1ccccc1C(O)c1cc(C(F)(F)F)nc2c(C(F)(F)F)cccc12 (stereo not drawn) [Example 76, α-(2-Aminophenyl)-2,8-bis(trifluoromethyl)-4-quinolinemethanol]"
11,122.5 to 123.1 °C,"OC(c1cc(NCc2ccccc2)nc2ccccc12)C1CCCCC1 (stereo not drawn) [Example 79, 2-Benzylamino-α-cyclohexyl-4-quinolinemethanol]"
12,120.6 to 120.9 °C,"OCCCCC(O)c1cc(C(F)(F)F)nc2c(C(F)(F)F)cccc12 (stereo not shown) [Example 82, 1-(2,8-Bis(trifluoromethyl)-4-quinolinyl)-5-hydroxypentanol]"
13,144 to 146 °C,"OC(c1ccccc1)c1cc(Cl)nc2ccccc12 (stereo not drawn) [Example 83, 2-Chloro-α-phenyl-4-quinolinemethanol]"
14,215 °C (dec.),"Cc1cccc2c(C(O)c3ccccn3)cc(O)nc12 (stereo not drawn) [Example 88, 2-Hydroxy-8-methyl-α-(2-pyridyl)-4-quinolinemethanol]"
15,> 350 °C,"Oc1cc(C(O)(c2ccccc2)c2ccccc2)c2ccccc2n1 [Example 90, α,α-Diphenyl-2-hydroxy-4-quinolinemethanol]"
16,111 to 112 °C,"OC(c1ccccc1)c1cc(-c2ccccc2)nc2ccccc12 (stereo not drawn) [Example 91, 2,α-Diphenyl-4-quinolinemethanol]"
17,82 to 83 °C,"FC(F)(F)c1cc(-c2ccco2)c2cccc(C(F)(F)F)c2n1 [Example 93, 2,8-Bis(trifluoromethyl)-4-(2-furanyl)quinoline]"
